Reference: patent US7229825B2, “Double-transfected cell line useful for the identification of transport inhibitors” (Deutches Krebsforschungszentrum Stiftung des Offentlichen …, priority 2001, dated 2007)

Key:
[1] = test system: OATP2 and MRP2 (MDCK-OATP2/MRP2 cells); experiment: Transcellular transport of BSP by MDCK-OATP2/MRP2 cells; type: cell-based, human; conditions: 1 μM [3H]BSP basolateral, 30 min, 37° C.; MDCK-OATP2/MRP2 vs MDCK-Co and MDCK-OATP2
From the text: FIG. 13: Transcellular transport of BSP by MDCK-OATP2/MRP2 cells.
Proteins were separated by SDS-PAGE (7.5% gels).

human MRP2 = human MRP2 (Homo sapiens, UniProt Q92887); experiment: ATP-dependent transport of [3H]BSP into inside-out membrane vesicles from HEK-MRP2 cells; type: biochemical
human MRP2, sequence (Q92887 whole entry): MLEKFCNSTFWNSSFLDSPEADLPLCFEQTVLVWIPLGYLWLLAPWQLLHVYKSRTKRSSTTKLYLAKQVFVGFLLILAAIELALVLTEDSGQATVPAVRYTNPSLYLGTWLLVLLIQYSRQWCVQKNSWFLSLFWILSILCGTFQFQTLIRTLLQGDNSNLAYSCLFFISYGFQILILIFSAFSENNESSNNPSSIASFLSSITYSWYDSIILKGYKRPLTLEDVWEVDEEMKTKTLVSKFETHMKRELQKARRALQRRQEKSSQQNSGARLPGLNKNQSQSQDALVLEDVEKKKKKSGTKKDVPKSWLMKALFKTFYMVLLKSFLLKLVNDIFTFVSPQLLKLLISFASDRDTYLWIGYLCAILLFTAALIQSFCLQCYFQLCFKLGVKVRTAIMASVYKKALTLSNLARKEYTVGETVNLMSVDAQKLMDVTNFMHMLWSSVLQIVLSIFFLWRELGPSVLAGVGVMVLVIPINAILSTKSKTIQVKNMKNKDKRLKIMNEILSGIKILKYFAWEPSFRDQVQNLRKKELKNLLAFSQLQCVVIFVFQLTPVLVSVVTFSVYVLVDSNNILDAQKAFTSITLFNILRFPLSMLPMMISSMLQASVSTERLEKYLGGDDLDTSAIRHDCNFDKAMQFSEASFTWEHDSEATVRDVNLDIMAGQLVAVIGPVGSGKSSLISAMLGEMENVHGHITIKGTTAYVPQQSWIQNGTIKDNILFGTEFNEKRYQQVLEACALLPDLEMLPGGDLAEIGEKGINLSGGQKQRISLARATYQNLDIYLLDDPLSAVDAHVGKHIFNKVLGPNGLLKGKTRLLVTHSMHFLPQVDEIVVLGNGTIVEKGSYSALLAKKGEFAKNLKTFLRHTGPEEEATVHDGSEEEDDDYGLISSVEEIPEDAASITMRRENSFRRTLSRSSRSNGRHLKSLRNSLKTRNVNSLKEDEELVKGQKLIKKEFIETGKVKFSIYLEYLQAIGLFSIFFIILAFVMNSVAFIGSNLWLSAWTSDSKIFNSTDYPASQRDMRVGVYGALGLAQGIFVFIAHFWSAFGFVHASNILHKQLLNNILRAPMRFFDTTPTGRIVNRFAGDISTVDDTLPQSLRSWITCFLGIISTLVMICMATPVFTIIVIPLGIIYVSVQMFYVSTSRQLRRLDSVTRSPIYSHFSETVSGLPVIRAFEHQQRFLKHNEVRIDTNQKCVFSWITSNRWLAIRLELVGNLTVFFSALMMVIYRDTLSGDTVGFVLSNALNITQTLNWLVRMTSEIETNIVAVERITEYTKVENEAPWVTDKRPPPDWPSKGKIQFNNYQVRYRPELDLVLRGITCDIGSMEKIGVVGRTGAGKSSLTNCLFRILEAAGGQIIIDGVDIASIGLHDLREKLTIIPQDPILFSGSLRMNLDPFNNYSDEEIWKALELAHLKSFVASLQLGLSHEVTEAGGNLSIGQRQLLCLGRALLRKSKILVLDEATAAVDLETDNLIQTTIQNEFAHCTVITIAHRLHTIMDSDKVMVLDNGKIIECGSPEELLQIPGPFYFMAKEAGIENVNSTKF
Procedure: Vesicle Transport Studies. Transport of [^3H]BSP into membrane vesicles was measured by the rapid filtration method (Keppler et al. 1998). Briefly, membrane vesicles (30 μg protein) were incubated in the presence of 4 mM ATP, 10 mM creatine phosphate, 100 μg/ml creatine kinase, and [^3H]BSP in an incubation buffer (250 mM sucrose, 10 mM Tris/HCl, pH 7.4) in a final volume of 55 μl at 37° C. Aliquots (15 μl) were taken at the indicated time points, diluted in 1 ml ice-cold incubation buffer, and immediately filtered through presoaked nitrocellulose membrane (0.2 μm pore size, Schleicher & Schüll, Dassel, Germany). Filters were rinsed twice with 5 ml of incubation buffer, dissolved in liquid scintillation fluid, and counted for radioactivity. In control experiments, ATP was replaced by an equal concentration of 5′-AMP. ATP-dependent transport was calculated by subtracting values obtained in the presence of 5′-AMP from those obtained in the presence of ATP.

[2] = molecular target: T1, human OATP8 (MDCK-OATP8 cells) (Homo sapiens, UniProt Q9NPD5); experiment: [3H]BSP accumulation and efflux in MDCK-OATP8 cells on Transwell membrane inserts; type: cell-based; design: expressed in transfected cells
T1 sequence (Q9NPD5 1-702): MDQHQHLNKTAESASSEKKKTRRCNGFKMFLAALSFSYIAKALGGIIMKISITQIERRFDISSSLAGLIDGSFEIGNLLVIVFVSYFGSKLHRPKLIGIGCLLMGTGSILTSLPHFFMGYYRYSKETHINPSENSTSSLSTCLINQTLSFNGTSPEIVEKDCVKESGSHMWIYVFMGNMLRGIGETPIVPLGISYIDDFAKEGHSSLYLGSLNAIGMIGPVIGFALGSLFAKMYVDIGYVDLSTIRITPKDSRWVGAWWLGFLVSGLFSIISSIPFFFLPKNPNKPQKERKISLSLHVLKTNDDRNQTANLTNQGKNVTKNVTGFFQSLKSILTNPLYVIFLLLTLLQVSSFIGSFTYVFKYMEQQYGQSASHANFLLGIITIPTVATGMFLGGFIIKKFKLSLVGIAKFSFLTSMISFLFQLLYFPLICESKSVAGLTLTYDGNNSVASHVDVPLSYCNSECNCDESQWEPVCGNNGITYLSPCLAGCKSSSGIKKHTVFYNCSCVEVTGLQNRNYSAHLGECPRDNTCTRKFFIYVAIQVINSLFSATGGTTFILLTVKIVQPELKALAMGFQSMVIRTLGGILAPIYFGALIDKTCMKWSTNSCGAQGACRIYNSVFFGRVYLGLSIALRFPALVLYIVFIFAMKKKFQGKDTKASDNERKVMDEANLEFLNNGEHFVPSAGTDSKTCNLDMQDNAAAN

[3] = test system: human OATP8 and MRP2 (MDCK-MRP2/OATP8 cells)
Procedure: For transport assays MDCKII cells were grown on Transwell membrane inserts (24 mm diameter, 0.4 μm pore size, Corning Costar) at confluency for 3 days and induced with 10 mM sodium butyrate for 24 h. […] After the time periods indicated, the radioactivity in the opposite compartments was measured. The intracellular accumulation of the radioactivity was determined by lysing the cells with 2 ml 0.2% SDS in water and measuring the radioactivity in cell lysates.
To study the transcellular transport of Fluo-3, cells were incubated with 2 μM Fluo-3 in the basolateral compartments at 37° C. for 30 min.
To study the transcellular transport of rifampicin, cells were incubated with 50 μM rifampicin in the basolateral compartments at 37° C. for 30 min. To determine the concentration of rifampicin in the apical compartments its absorption at 475 nm was measured with a spectrophotometer (Ultrospec III, Amersham-Pharmacia, Freiburg, Germany). A calibration curve for the calculation of the concentrations of rifampicin was determined in the concentration range between 1 and 50 μM.

MDCK-MRP2/OATP8 cells = experiment: Radio-HPLC analysis of [3H]BSP after transport by MDCK-MRP2/OATP8 cells; type: in vitro ADME; conditions: 1 μM [3H]BSP basolateral, 30 min, acivicin 5 mM
Procedure: HPLC Analysis of [^3H]BSP. MDCK-MRP2/OATP8 cells grown on Transwell membrane inserts were incubated with 1 μM [^3H]BSP in the basolateral compartment for 30 min at 37° C. after a pre-incubation with 5 mM acivicin, an inhibitor of g-glutamyltransferase (Allen et al. 1980), in both compartments for 30 min at 37° C. The radioactivity in the apical compartment and in the cell lysate was analyzed by HPLC. Reversed-phase HPLC analyses on a C18 Hypersil column ([…] particles; Shandon, Runcorn, UK) were performed as described (Cui et al. 2001) using a linear gradient elution from 100% buffer A (45% methanol/55% water containing […] tetrabutylammonium hydroxide at pH 6.0) to 100% buffer B (90% methanol/10% water containing 2 mM tetrabutylammonium hydroxide at pH 6.0) at a flow rate of 1 ml/min. [^3H]BSP-SG was synthesized for the HPLC analyses by incubating 1 mM GSH, 0.4 mM [^3H]BSP (1 μCi), and 5 mM acivicin with 350 μl mouse liver cytosol in a final volume of 500 μl for 1 h at 37° C. After deproteinization with 3 volume of methanol 200 μl supernatant was analyzed by HPLC as described above.

SMILES: O=C1OC(c2ccc(O)c(S(=O)(=O)O)c2)(c2ccc(O)c(S(=O)(=O)O)c2)c2c(Br)c(Br)c(Br)c(Br)c21 [BSP, sulfobromophthalein]
- rate of transcellular transport of BSP [1]: significantly higher
- transport of [3H]BSP into membrane vesicles from HEK-MRP2 cells (human MRP2; 1 μM, ATP vs 5'-AMP): transported ATP-dependently
- accumulation of [3H]BSP in membrane vesicles (human MRP2; HEK-MRP2 vs control-transfected HEK-Co vesicles): significantly higher
- intracellular accumulation of [3H]BSP ([2]; 1 μM basolateral, MDCK-OATP8 or MDCK-MRP2/OATP8 vs MDCK-Co and MDCK-MRP2 cells): significantly higher
- efflux of [3H]BSP, route of release ([2]; MDCK-OATP8 cells loaded with 1 μM for 30 min, then 30 min efflux): mainly across the basolateral membrane
- intracellular [3H]BSP level remaining after 30 min efflux [3]: significantly lower
- transcellular transport (basolateral to apical) [3]: marked transcellular transport
- rate of transfer from the basolateral to the apical compartment, double-transfected versus single-transfected cells ([3]; human, pH 7.3): at least 6 times
- radioactivity in the apical compartment and in the cells with the retention time of unconjugated [3H]BSP (MDCK-MRP2/OATP8 cells): > 98%
